Assay results reported in US9242008B2, “Mineral amino-acid complexes of fatty acids” (Thetis Pharmaceuticals LLC, priority 2014, dated 2016).

Legend:
[1] = single dose, oral pharmacokinetic study in rats (total EPA plasma levels); assay type: in vivo
Excerpt: The results of a single dose, oral pharmacokinetic study in rats for a compound of Formula III (designated TP-252, Mg-Lys2-EPA2) are shown in Table 1 below. One of the parameters shown in Table 1 is the area under the curve (AUC), which is the integral of a plot of concentration of drug in blood plasma against time. The AUC is proportional to the total amount of the active pharmaceutical agent (API) that reaches the blood circulation. In this example, the API (or analyte) is EPA. AUC and Cmax are given for the compound of Formula III, EPA free fatty acid (EPA FFA), and EPA ethyl ester (EPA EE). EPA ethyl ester is the FDA-approved form of EPA.

[2] = Physical stability study (proton NMR after exposure to air at room temperature); assay type: physicochemical
Excerpt: FIG. 1: Proton NMR spectrum of magnesium bis-lysinate bis-EPA taken on the day the compound was synthesized (upper trace) and 60-days later (lower trace) with the compound having been exposed to air at room temperature for the entire 60-day period.
The compounds of the invention are remarkably stable compared to omega-3 polyunsaturated free fatty acids, which typically show evidence of oxidative degradation with hours of exposure to atmospheric oxygen. […] The upper tracing in FIG. 1 is a proton NMR spectrum of magnesium bis-lysinate bis-EPA taken on the day the compound was synthesized. The lower tracing is the NMR taken 60-days later with the compound having been exposed to air at room temperature for the entire period.

CC/C=C\C/C=C\C/C=C\C/C=C\C/C=C\CCCC(=O)O.CC/C=C\C/C=C\C/C=C\C/C=C\C/C=C\CCCC(=O)O.NCCCC[C@H](N)C(=O)[O-].NCCCC[C@H](N)C(=O)[O-].[Mg+2] [TP-252, magnesium bis-lysinate bis-EPA dihydrate]
EPA delivered to the blood plasma versus equivalent doses of EPA free fatty acid or EPA ethyl ester [1]: delivers significantly more EPA to the blood plasma
Baseline and EPA Molar Dose Equivalent Adjusted Cmax of Total EPA in plasma ([1]; total dose 40.0 mg/kg, analyte EPA, Cmax minus predose level, multiplied by EPA molar dose adjustment factor): 13200 ng/mL
Baseline and EPA Molar Dose Equivalent Adjusted AUC0-18 hrs of Total EPA in plasma ([1]; total dose 40.0 mg/kg, analyte EPA, baseline adjusted and multiplied by EPA molar dose adjustment factor): 133 µg·h/mL
proton NMR evidence of oxidation or degradation ([2]; after 60 days exposed to air at room temperature versus day of synthesis): no evidence of oxidation or degradation by other mechanisms
time chemically stable ([2]; room temperature, exposed to air): at least 60 days
